In patent US20250032625A1, “HETEROBIFUNCTIONAL MOLECULES AS TEAD INHIBITORS” (Merck Patent GmbH, priority 2021, published 2025):
Where two headings read alike, the source gives them in different places.

Columns and labels:
TEAD1 in SK-HEP1 cells = TEAD1 in SK-HEP1 cells (Homo sapiens (Human), UniProt P28347); test: TEAD degradation in SK-HEP1 cell line (immunofluorescence); type: cell-based
Protocol: (§1) Degradation of TEAD isoform TEAD1 by exemplary compounds which has been determined at different time points in two different cell lines, SK-HEP1 and NCI-H226: For the assay, SK-HEP1 (ATCC HTB-52) and NCI-H226 (ATCC CRL-5826) cells were treated in duplicates with the test compounds in a 10-point dose, 1:3 dilution steps, with the top concentration starting at 30 uM (final concentration in assay). After either 16 or 24 hour incubation at 37° C., 95% rH, and 5% CO2, the cells were fixed with 4% PFA and TEAD1 levels were probed using immunofluorescence. The primary antibody used was Anti-TEF1 (BD, 610293) and the secondary antibody used was Alexa Fluor® 488 Goat Anti-Mouse IgG (H+L) (Molecular Probes, A-11001). Finally, the cell nuclei were co-stained by Hoechst 33258 (Invitrogen, H-3569) and imaged using a high content imager. The amount of TEAD degradation was determined by quantifying the fluorescence intensity levels of Anti-TEF1 in each individual cell per well. DC50 was calculated using curve fitting software Genedata Screener. Cell media: The SK-HEP1 cells were cultured in the following media: MEM, +10% FCS, +1× GlutaMAX, +100 μM NEAA, +10 mM HEPES, +0.5% Pen/Strep. The NCI-H226 cells were cultured in the following media: RPMI 1640, +10% FBS, +1× GlutaMAX, +10 mM HEPES, +0.5% Pen/Strep.

TEAD1 in NCI-H226 cells = TEAD1 in NCI-H226 cells (Homo sapiens (Human), UniProt P28347); test: TEAD degradation in NCI-H226 cell line (immunofluorescence); type: cell-based
Protocol: as §1

[1] = 24 h incubation, read-out: DC50 SK-HEP1 24 h
[2] = 24 hours, ranges, read-out: DC50 SK-HEP1
[3] = 24 h incubation, read-out: DC50 NCI-H226 24 h
[4] = 24 hours, ranges, read-out: DC50 NCI-H226

Chain of TEAD1 in SK-HEP1 cells (P28347 whole entry, canonical isoform): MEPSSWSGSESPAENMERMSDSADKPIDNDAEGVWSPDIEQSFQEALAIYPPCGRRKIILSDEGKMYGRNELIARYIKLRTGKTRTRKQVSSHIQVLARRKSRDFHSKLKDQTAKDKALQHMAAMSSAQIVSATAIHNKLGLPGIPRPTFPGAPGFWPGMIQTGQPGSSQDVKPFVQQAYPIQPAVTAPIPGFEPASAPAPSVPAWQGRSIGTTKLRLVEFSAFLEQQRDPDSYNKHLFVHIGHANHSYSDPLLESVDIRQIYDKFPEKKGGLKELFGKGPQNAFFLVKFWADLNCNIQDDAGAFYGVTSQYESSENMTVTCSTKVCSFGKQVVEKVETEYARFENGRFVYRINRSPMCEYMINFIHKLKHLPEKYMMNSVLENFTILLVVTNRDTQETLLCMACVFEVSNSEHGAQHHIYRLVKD
Chain of TEAD1 in NCI-H226 cells (P28347 whole entry): as the sequence (P28347 whole entry, canonical isoform) above

Structure (SMILES) | DC50 (TEAD1 in SK-HEP1 cells; [1]) [µM] | DC50 (TEAD1 in SK-HEP1 cells; [2]) [µM] | DC50 (TEAD1 in NCI-H226 cells; [3]) [µM] | DC50 (TEAD1 in NCI-H226 cells; [4]) [µM]
Cc1ncsc1-c1ccc(CNC(=O)[C@@H]2C[C@@H](O)CN2C(=O)[C@@H](NC(=O)CCCCCCCCCNC(=O)c2ccc3c(c2)c2cn(C)nc2n3-c2ccc(C(F)(F)F)cc2)C(C)(C)C)cc1 [Compound 20, (2S,4R)-1-[(2S)-3,3-dimethyl-2-[10-({2-methyl-8-[4-(trifluoromethyl)phenyl]-2H,8H-pyrazolo[3,4-b]indol-5-yl}formamido)decanamido]butanoyl]-4-hydroxy-N-{[4-(4-methyl-1,3-thiazol-5-yl)phenyl]methyl}pyrrolidine-2-carboxamide] | 0.19 | 0.1 to 1 | 0.3 | 0.1 to 1
Cc1ncsc1-c1ccc(CNC(=O)[C@@H]2C[C@@H](O)CN2C(=O)[C@@H](NC(=O)CCCCCc2cn(CCCCCCCNC(=O)c3ccc4c(c3)c3cn(C)nc3n4-c3ccc(C(F)(F)F)cc3)nn2)C(C)(C)C)cc1 [Compound 34, (2S,4R)-1-[(2S)-3,3-dimethyl-2-(6-{1-[7-({2-methyl-8-[4-(trifluoromethyl)phenyl]-2H,8H-pyrazolo[3,4-b]indol-5-yl}formamido)heptyl]-1H-1,2,3-triazol-4-yl}hexanamido)butanoyl]-4-hydroxy-N-{[4-(4-methyl-1,3-thiazol-5-yl)phenyl]methyl}pyrrolidine-2-carboxamide] | – | 0.1 to 1 | – | 0.1 to 1
Cn1cc2c3cc(C(=O)NCCOCCOCCOCCNc4cccc5c4C(=O)N(C4CCC(=O)NC4=O)C5=O)ccc3n(-c3ccc(C(F)(F)F)cc3)c2n1 (stereo not shown) [Compound 50, N-(2-{2-[2-(2-{[2-(2,6-dioxopiperidin-3-yl)-1,3-dioxo-2,3-dihydro-1H-iso-indol-4-yl]amino}ethoxy)ethoxy]ethoxy}ethyl)-2-methyl-8-[4-(trifluoro-methyl)phenyl]-2H,8H-pyrazolo[3,4-b]indole-5-carboxamide] | – | 9 to 30 | – | < 0.1
CN(CCOCCOCCOCCOCCNC(=O)c1ccc2c(c1)c1cn(C)nc1n2-c1ccc(C(F)(F)F)cc1)c1cccc2c1C(=O)N(C1CCC(=O)NC1=O)C2=O (stereo not shown) [Compound 80, N-{2-[2-(2,6-dioxopiperidin-3-yl)-1,3-dioxo-2,3-dihydro-1H-isoindol-4-yl]-5,8,11,14-tetraoxa-2-azahexadecan-16-yl}-2-methyl-8-[4-(trifluoromethyl)phenyl]-2H,8H-pyrazolo[3,4-b]indole-5-carboxamide] | – | < 0.1 | – | 0.1 to 1
Cc1ncsc1-c1ccc(CNC(=O)C2CC(O)CN2C(=O)C(NC(=O)COCCOCCOCCOCCNC(=O)c2ccc3c(c2)c2cn(C)nc2n3-c2ccc(C(F)(F)F)cc2)C(C)(C)C)cc1 (stereo in doubt) [Compound 12, (2S,4R)-1-{(2S)-3,3-dimethyl-2-[14-({2-methyl-8-[4-(trifluoromethyl)phenyl]-2H,8H-pyrazolo[3,4-b]indol-5-yl}formamido)-3,6,9,12-tetraoxatetradecanamido]butanoyl}-4-hydroxy-N-{[4-(4-methyl-1,3-thiazol-5-yl)phenyl]methyl}pyrrolidine-2-carboxamide] | – | 0.1 to 1 | – | 3 to 9
Cn1cc2c3cc(C(=O)NCCOCCOCCOCCOCCNC(=O)[C@]45CCC(C)(C)C[C@H]4[C@H]4C(=O)C=C6[C@@]7(C)C=C(C#N)C(=O)C(C)(C)[C@@H]7CC[C@@]6(C)[C@]4(C)CC5)ccc3n(-c3ccc(C(F)(F)F)cc3)c2n1 [Compound 33, (4aS,6aR,6bS,8aR,12aS, 14aR, 14bS)-11-cyano-2,2,6a,6b,9,9,12a-heptamethyl-N-[14-({2-methyl-8-[4-(trifluoromethyl)phenyl]-2H,8H-pyrazolo[3,4-b]indol-5-yl}formamido)-3,6,9,12-tetraoxatetradecan-1-yl]-10,14-dioxo-1,2,3,4,4a,5,6,6a,6b,7,8,8a,9,10,12a,14,14a,14b-octadecahydropicene-4a-carboxamide] | 0.65 | 0.1 to 1 | 0.6 | 0.1 to 1
